Data from US11066378B2, “Caffeic acid derivatives for anti-angiogenesis” (Taipei Medical University, priority 2015, dated 2021).

Columns and labels:
[1] = test system: LLC1 lung cancer cells; assay: Cell viability assay (MTT assay), growth inhibition of LLC1 cells; format: cell-based, mouse; settings: normal culture condition
Procedure: Human umbilical vein endothelial cells (HUVECs; #8000) were purchased from the ScienCell Research Laboratories (San Diego, Calif., USA). The cells were seeded on gelatin-coated culture dishes and grown in the commercial endothelial cell medium (#1001; ScienCell) containing 5% fetal bovine serum (FBS; #0025; ScienCell), 30 μg/mL endothelial cell growth supplements (ECGS; #1052; ScienCell), 100 units/mL penicillin G, and 100 μg/mL streptomycin sulfates (#0503; ScienCell). Cells at passage 3-6 were used for experiments. Mouse Lewis lung carcinoma cell line 1 (LLC1; #60050) was bought from the Food Industry Research and Development Institute (Hsinchu, Taiwan) and cultured in Gibco® Dulbecco's modified Eagle's medium (#12800-017; Invitrogen, Carlsbad, Calif., USA) supplemented with 10% FBS (HyClone, Logan, Utah, USA), 4 mM L-glutamine, 1.5 g/L sodium bicarbonate, 100 units/mL penicillin G, and 100 μg/mL streptomycin. All cells were incubated in a humidified 5% CO2 atmosphere at 37° C. and culture media was changed every 2˜3 days.
The experiments were performed according to our previous study with minor modifications (Pan et al., 2010). […] Absorbance values at 570 nm were determined for each well using 650 nm as the reference wavelength. The absorbance of the control group (treated with 5% or 10% FBS alone) was defined as 100%.

[2] = test system: HUVECs; assay: Cell cycle analysis by flow cytometry; format: cell-based, human; settings: 24 h, FIG. 2E
Procedure: The experiments were performed according to our previous report with minor modifications (Pan et al., 2010). Briefly, the HUVECs (5×10^5 cells/well) were seeded on 6-well plated and harvested after 24 h treatment of K20E (0.5, 1, and 2 μM). Harvested cells were fixed with 70% ice-cold ethanol overnight. Cell pellets were centrifuged (1500 rpm, 5 min, 4° C.) and then re-suspended in 500 μL of DNA staining buffer containing 4 μg/mL propidium iodide, 1% Triton X-100, and 0.5 mg/mL of RNase A. After incubation at 37° C. (water bath) for 30 min in the dark, the cell cycle phase distributions were detected and analyzed by using FACSCanto flow cytometer (BD Biosciences, San Jose, Calif., USA) and ModFit LT Program (Verify Software House, Topsham, Me., USA), respectively.

[3] = test system: HUVECs; assay: Tube formation analysis; format: cell-based, human; settings: 8 h, 5% FBS, 0.5, 1 and 2 μM, dose-dependent, FIG. 4
Procedure: The experiments were performed as described previously (Pan et al., 2010). The HUVECs (lx 10^4 cells/well) were seeded on Matrigel-coated wells of a 96-well plate and then incubated with various concentrations (0.5, 1, and 2 μM) of K20E for 8 h. After that, the capillary-like tube formation was observed by light microscopy at 40-fold magnification, and the tube lengths of the capillary mesh were measured to evaluate anti-angiogenic effect of K20E. The tube length of the control group (treated with 5% FBS alone) was defined as 100%.

Structure (SMILES): COC(=O)/C=C/c1cc(OC(C)=O)c2c(c1)[C@H](C(=O)OC)[C@@H](c1ccc(OC(C)=O)c(OC(C)=O)c1)O2 [K20E]
- GI50 ([1]; Mus musculus, LLC1 lung cancer cells, data not shown, read-out: GI50 value on LLC1 (concentration that causes 50% growth inhibition)): ~79.4 µM
- cell viability of the LLC1 lung cancer cells [1]: significantly inhibit
- cells in sub-G1 phases (apoptosis) ([2]; 0.5 μM): significantly induce cells in sub-G1 phases (apoptosis)
- cell cycle arrest in G2/M phase ([2]; 1 μM): arrest cells in G2/M phase
- tube formation of the HUVECs on Matrigel [3]: significantly suppressed
